According to US20050208139A1 (Ascend Therapeutics, Inc., priority 2004, published 2005):

Columns and labels:
[1] = system: normal and cancerous breast cells; settings: in vitro; cited from earlier work
[2] = Effects of isopropyl myristate, nature of the alcohol and alcohol/phosphate buffer ratio on isomerization (Example 2); type: physicochemical
Description: The initial E/Z ratio was 63%/37%. • Reference solution: Gel formulation without the gelling agent KLUCEL • Solution II: Reference solution without Isopropyl myristate and containing ethanol • Solution III: Solution II with the ethanol replaced by Isopropyl alcohol • Solution IV: Solution II with the ethanol/buffer ratio of 50/50 instead of 66.5/33.5

estrogen receptors = settings: in vitro; cited from earlier work
[3] = cited from earlier work
[4] = Effects of UV light on isomerization (Example 4); type: physicochemical; settings: room temperature
[5] = 254 nm, T0, degradation impurity (phenanthrene derivative)

CCC(=C(c1ccc(O)cc1)c1ccc(OCCN(C)C)cc1)c1ccccc1 [4-hydroxy tamoxifen, 1-[4-(2-N-dimethylaminoethoxy)phenyl]-1-(4-hydroxyphenyl)-2-phenylbut-1-ene]
growth of both normal and cancerous breast cells [1]: inhibits the growth | effect of replacing ethanol by isopropyl alcohol and eliminating the isopropyl myristate on the reversible kinetics ([2]; 0.06% solutions): no significant effect | effect of increasing the aqueous vehicle (buffer) concentration from 33.5% to 50% on the rate constant ([2]; 25° C. and 30° C.): greatly increases the rate constant | effect of increasing the aqueous vehicle (buffer) concentration from 33.5% to 50% on the rate constant ([2]; 40° C.): less pronounced | dependence of the isomerization rate on the dielectric constant of the solvent medium ([2]; water concentration in the medium increases): increased as the dielectric constant of the solvent medium is increased | potency as measured by binding affinity to estrogen receptors, compared with tamoxifen (estrogen receptors): more potency than tamoxifen | extent of isomerization ([3]; Katzenellenbogen et al., isomers initially 99% pure, after 2 days in tissue culture medium at 37° C.): 20% | time within which spontaneous isomerization of Z- into E-4-hydroxy tamoxifen occurred ([3]; Malet et al.): 24-48 h | % E ([4]; 254 nm, 5 min): 3.0% | % Z ([4]; 254 nm, 5 min): 91.5% | % imp 1 ([4]; 254 nm, 5 min): 0.0% | % imp 2 ([4]; 254 nm, 5 min): 5.5% | % E ([4]; 254 nm, 10 min): 3.1% | % Z ([4]; 254 nm, 10 min): 90.5% | % imp 1 ([4]; 254 nm, 10 min): 0.0% | % imp 2 ([4]; 254 nm, 10 min): 6.3% | % E ([4]; 254 nm, 15 min): 3.5% | % Z ([4]; 254 nm, 15 min): 86.5% | % imp 1 ([4]; 254 nm, 15 min): 1.3% | % imp 2 ([4]; 254 nm, 15 min): 8.7% | % E ([4]; 254 nm, 30 min): 5.7% | % Z ([4]; 254 nm, 30 min): 74.4% | % imp 1 ([4]; 254 nm, 30 min): 4.3% | % imp 2 ([4]; 254 nm, 30 min): 15.6% | % E ([4]; 254 nm, 45 min): 6.7% | % Z ([4]; 254 nm, 45 min): 65.1% | % imp 1 ([4]; 254 nm, 45 min): 7.8% | % imp 2 ([4]; 254 nm, 45 min): 20.4% | % E ([4]; 254 nm, 1 h): 7.2% | % Z ([4]; 254 nm, 1 h): 56.6% | % imp 1 ([4]; 254 nm, 1 h): 10.2% | % imp 2 ([4]; 254 nm, 1 h): 26.0% | % E ([4]; 254 nm, 1 h 15): 7.5% | % Z ([4]; 254 nm, 1 h 15): 52.7% | % imp 1 ([4]; 254 nm, 1 h 15): 11.4% | % imp 2 ([4]; 254 nm, 1 h 15): 28.4% | % E ([4]; 254 nm, 1 h 30): 8.2% | % Z ([4]; 254 nm, 1 h 30): 43.5% | % imp 1 ([4]; 254 nm, 1 h 30): 14.0% | % imp 2 ([4]; 254 nm, 1 h 30): 34.2% | % E ([4]; 254 nm, 1 h 45): 8.2% | % Z ([4]; 254 nm, 1 h 45): 38.2% | % imp 1 ([4]; 254 nm, 1 h 45): 16.5% | % imp 2 ([4]; 254 nm, 1 h 45): 37.1% | % E ([4]; 254 nm, 2 h): 8.3% | % Z ([4]; 254 nm, 2 h): 32.5% | % imp 1 ([4]; 254 nm, 2 h): 18.2% | % imp 2 ([4]; 254 nm, 2 h): 41.0% | % E ([4]; 254 nm, T0): 1.7% | % Z ([4]; 254 nm, T0): 98.3% | % imp 1 [4, 5]: 0.0% | % imp 2 [4, 5]: 0.0% | % E ([4]; 380 nm, 5 min): 1.6% | % Z ([4]; 380 nm, 5 min): 98.4% | % E ([4]; 380 nm, 10 min): 1.7% | % Z ([4]; 380 nm, 10 min): 98.3% | % E ([4]; 380 nm, 15 min): 1.6% | % Z ([4]; 380 nm, 15 min): 98.4% | % E ([4]; 380 nm, 30 min): 1.8% | % Z ([4]; 380 nm, 30 min): 98.2% | % E ([4]; 380 nm, 45 min): 1.9% | % Z ([4]; 380 nm, 45 min): 98.1% | % E ([4]; 380 nm, 1 h): 2.0% | % Z ([4]; 380 nm, 1 h): 98.0% | % E ([4]; 380 nm, 1 h 15): 2.8% | % Z ([4]; 380 nm, 1 h 15): 97.2% | % E ([4]; 380 nm, 1 h 30): 2.9% | % Z ([4]; 380 nm, 1 h 30): 97.1% | % E ([4]; 380 nm, 1 h 45): 2.9% | % Z ([4]; 380 nm, 1 h 45): 97.1% | % E ([4]; 380 nm, 2 h): 3.3% | % Z ([4]; 380 nm, 2 h): 96.7% | % E ([4]; 380 nm, T0): 1.6% | % Z ([4]; 380 nm, T0): 98.4% | isomerization process at 254 nm compared with 380 nm ([4]; UV light): faster than at 380 nm | time in which the isomerization process can be observed under UV light [4]: 5 min
